ChEMBL document CHEMBL1201862, “PubChem BioAssay data set” (2004)
Active and inactive are the calls of the source.

Tests used:
[1] = molecular target: T1, Exodeoxyribonuclease V (Escherichia coli (strain K12), UniProt P04993+P07648+P08394); test: RecBCD inhibition via phage-restricted bacterial growth – absorbance, V66 E. coli, mutant T4 phage, counter-screen for AddAB inhibitor project, dose response (AID 492957); type: functional, cell-based, Escherichia coli str. K-12 substr. MG1655
T1 sequence (P04993 whole entry): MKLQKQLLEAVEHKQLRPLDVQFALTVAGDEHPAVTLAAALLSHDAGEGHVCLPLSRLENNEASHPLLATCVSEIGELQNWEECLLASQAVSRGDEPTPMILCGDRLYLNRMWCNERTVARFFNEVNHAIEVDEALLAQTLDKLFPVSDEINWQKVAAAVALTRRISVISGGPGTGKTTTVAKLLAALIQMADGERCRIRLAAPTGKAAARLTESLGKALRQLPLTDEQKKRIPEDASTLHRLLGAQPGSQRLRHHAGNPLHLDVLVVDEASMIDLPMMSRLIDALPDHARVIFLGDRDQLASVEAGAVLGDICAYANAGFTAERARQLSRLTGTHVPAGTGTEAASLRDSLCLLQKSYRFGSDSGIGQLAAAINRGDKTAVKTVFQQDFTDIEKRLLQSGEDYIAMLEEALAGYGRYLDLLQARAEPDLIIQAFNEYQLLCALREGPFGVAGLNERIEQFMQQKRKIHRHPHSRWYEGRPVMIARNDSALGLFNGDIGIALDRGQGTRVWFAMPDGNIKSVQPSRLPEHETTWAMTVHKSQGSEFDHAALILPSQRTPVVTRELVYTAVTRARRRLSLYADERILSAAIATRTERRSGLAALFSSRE
T1 sequence (P07648 whole entry): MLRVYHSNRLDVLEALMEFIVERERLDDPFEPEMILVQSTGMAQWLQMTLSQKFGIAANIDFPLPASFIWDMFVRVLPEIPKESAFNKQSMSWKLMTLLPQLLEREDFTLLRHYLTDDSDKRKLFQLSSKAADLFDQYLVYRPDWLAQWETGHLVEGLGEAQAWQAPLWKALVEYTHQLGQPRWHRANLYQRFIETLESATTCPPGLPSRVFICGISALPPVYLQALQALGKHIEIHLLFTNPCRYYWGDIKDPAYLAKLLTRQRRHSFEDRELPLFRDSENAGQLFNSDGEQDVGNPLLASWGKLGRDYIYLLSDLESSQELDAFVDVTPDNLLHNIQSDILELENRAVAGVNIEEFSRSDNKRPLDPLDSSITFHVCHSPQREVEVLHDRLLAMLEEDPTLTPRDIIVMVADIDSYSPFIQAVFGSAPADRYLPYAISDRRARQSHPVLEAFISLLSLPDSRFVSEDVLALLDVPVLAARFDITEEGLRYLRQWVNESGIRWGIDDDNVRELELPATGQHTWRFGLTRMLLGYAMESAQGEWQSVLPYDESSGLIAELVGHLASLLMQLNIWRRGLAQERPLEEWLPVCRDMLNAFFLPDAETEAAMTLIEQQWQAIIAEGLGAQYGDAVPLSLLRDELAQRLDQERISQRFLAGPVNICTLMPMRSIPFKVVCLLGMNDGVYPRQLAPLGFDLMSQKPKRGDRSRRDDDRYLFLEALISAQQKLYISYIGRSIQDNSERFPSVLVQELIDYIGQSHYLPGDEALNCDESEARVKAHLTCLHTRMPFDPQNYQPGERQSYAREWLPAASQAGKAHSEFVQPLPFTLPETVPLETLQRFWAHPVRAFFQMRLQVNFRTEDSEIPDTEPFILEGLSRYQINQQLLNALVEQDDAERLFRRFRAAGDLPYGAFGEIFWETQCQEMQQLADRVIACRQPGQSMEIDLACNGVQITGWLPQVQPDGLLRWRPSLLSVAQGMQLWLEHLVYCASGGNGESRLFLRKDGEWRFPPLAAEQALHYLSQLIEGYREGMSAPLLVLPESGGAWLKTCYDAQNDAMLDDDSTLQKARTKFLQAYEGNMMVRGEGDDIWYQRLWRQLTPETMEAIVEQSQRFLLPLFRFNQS
T1 sequence (P08394 whole entry): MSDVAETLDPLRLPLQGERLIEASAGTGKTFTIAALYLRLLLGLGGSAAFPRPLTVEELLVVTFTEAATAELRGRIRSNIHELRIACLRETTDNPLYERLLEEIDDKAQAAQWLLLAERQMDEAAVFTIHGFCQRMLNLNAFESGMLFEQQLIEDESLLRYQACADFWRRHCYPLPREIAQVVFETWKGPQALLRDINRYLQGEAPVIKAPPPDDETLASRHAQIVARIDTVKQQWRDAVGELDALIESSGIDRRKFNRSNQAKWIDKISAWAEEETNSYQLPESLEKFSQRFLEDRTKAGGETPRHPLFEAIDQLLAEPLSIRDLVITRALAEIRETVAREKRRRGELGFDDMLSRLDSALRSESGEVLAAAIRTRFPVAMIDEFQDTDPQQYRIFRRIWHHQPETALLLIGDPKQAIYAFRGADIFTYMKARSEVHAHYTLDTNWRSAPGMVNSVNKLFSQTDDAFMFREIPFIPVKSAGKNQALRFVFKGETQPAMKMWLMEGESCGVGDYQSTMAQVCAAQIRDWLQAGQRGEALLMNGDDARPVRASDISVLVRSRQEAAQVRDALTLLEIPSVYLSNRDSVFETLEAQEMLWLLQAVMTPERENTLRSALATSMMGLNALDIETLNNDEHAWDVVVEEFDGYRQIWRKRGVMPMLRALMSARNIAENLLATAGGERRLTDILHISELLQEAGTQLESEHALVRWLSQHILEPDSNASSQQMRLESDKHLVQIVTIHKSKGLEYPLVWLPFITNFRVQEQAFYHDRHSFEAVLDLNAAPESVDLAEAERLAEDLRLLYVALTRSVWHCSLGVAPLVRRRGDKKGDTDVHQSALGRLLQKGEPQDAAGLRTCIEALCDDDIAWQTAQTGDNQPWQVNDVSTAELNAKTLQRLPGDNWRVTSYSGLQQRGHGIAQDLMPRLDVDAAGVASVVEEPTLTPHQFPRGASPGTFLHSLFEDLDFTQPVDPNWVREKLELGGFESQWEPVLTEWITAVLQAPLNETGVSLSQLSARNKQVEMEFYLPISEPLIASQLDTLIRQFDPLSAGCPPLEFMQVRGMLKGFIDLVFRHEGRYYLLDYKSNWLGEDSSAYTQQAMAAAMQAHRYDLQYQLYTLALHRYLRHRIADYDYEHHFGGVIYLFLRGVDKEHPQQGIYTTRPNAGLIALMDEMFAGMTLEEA

[2] = test system: HEK293; test: EBV LMP1 TES2 canonical NF-kB signalling blockers – cell-based, HEK293, luciferase, cherry-pick, dose response (AID 588343); type: functional; conditions: Homo sapiens
[3] = test system: HEK293; test: HEK293T cell viability loss, resazurin readout – resazurin fluorescence, cytotoxicity control for NF-kB activator project, SAR follow-up (AID 493251); type: functional, cell-based; conditions: Homo sapiens
[4] = test system: CHO; test: CHO cell viability loss, potency – luminescence, cytotoxicity control for TLR9-MyD88 binding inhibitor project, dose response (AID 588339); type: functional, cell-based, hamster; conditions: Cricetulus griseus;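 also: CHO cells stably coexpressing TLR9 and MyD88 fusions from primary screen; compound exposure lasted 48 hours before viability readout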

CC(=O)NC(c1ccc2ccccc2c1)c1ccc2cccnc2c1O (centres undefined)
IC50 [1]: > 118 µM (inactive)
AC50 [2]: 4.18 µM (active)
IC50 [3]: 21.5 µM (inactive)

O=[N+]([O-])c1c(NCCO)cc(Sc2nc3ccccc3s2)c2nonc12
IC50 [4]: 1.94 µM (active)
